Measurements: patent publication US20040023884A1, “Biologically active peptides from functional domains of bactericidal/permeability-increasing protein and uses thereof” (priority 1993, published 2004)
Ends that are not written are not given here.

Experiments:
Pseudomonas aeruginosa = assay: Radial diffusion bactericidal assay, Pseudomonas aeruginosa; type: cell-based; details: FIG. 11a; up to about 2000 pmol
[1] = test system: L-form of S. aureus ATCC 19640; assay: Activity against L-forms of gram-positive bacteria; type: cell-based
Procedure: The bactericidal capacity of BPI peptides provided by the invention was also tested against Gram-positive bacteria (See Table VIII A). […] In addition, peptides were tested for their activity against L-forms of gram-positive bacteria, such as the L-form of S. aureus ATCC 19640.

E. coli O75 = assay: Radial diffusion bactericidal assay, E. coli O75; type: cell-based; details: FIG. 11d; up to about 2000 pmol
E. coli O18:K1:H7 = assay: Radial diffusion bactericidal assay, E. coli O18:K1:H7; type: cell-based; details: FIG. 11b; up to about 2000 pmol
[2] = test system: LPS-induced TNF production in whole blood; assay: Inhibition of LPS-induced TNF production in whole blood; type: cell-based; details: LPS-induced TNF production in human whole blood, E. coli 0113 LPS, 4 h at 37° C.
Procedure: LPS neutralization by BPI functional domain peptides of the invention was assayed in whole blood as follows. Freshly drawn blood from healthy human donors was collected into vacutainer tubes (ACD, Rutherford, N.J.) Aliquots of blood (170 μL) were mixed with 10 μL Ca^++-, Mg^++-free PBS containing 2.5 ng/mL E. coli 0113 LPS, and with 20 μL of varying concentrations of the BPI peptides of the invention ranging in concentration from 0.5-50 μg/mL. These mixtures were then incubated for 4 h at 37° C., and then the reaction stopped by the addition of 55 μL ice-cold Ca^++-, Mg^++-free PBS, followed by centrifugation at 500×g for 7 min. Supernatants were then assayed for TNF levels using a commercial ELISA kit (Biokine™ ELISA Test, T-cell Sciences, Cambridge. MA).

[3] = Binding of [125I]-RaLPS to peptides pre-bound to HUVEC cells; type: cell-based, human; details: 1 μg/mL or 3 μg/mL peptide
Procedure: In a third binding assay, a number of BPI functional domain peptides were tested for their ability to bind to radiolabeled LPS following incubation with human endothelial cells (HUVEC). This assay measures the ability to bind LPS once the BPI peptides are bound to HUVEC cells. HUVEC cells were incubated in the presence of various BPI peptides at a concentration of either 1 μg/mL or 3 μg/mL for 3 hr at 4° C. in 500 μL of a solution of D-PBS/BSA. Following this incubation, the cells were washed twice with ice-cold D-PBS/BSA and then incubated for an additional 2.5 hr at 4° C. in 500 μL of a solution of [^125I]-RaLPS (a total of 340,000 cpm at a specific activity of 4.6×10^6 cpm/μg) in D-PBS/BSA. The wells were washed three times with D-PBS/BSA, solubilized in 500 μL of 1M NaOH and the lysates counted using a gamma counter.

[4] = test system: Klebsiella pneumoniae 19645; assay: Radial diffusion bactericidal assay, antibiotic resistant Klebsiella pneumoniae 19645; type: cell-based
Procedure: These studies were conducted substantially following the procedures used in Example 2.
In order to test the bactericidal activity of BPI peptides on antibiotic resistant strains of Klebsiella pneumoniae, the multi-resistant clinically isolated strain 19645 was tested as in Example 2 and above. […] This strain was obtained from the Baxter Microscan® library (Sacramento, Calif.). An overnight culture of Klebsiella pneumoniae 19645 and a non-resistant strain (ATCC 29011) were diluted 1:50 into fresh tryptic soy broth and incubated for 3 hours at 37° C. to attain log phase. The overnight cultures were tested as described in Example 2 and part A above.

E. coli J5 (rough) = assay: Broth antibacterial assay, E. coli J5; type: cell-based
Procedure: In additional experiments, broth antibacterial assays were conducted to further determine the bactericidal activity of certain of the BPI peptides. Specifically, either E. coli J5 (rough) or E. coli 0111:B4 (smooth) bacteria were selected from single colonies on agar plates and used to inoculate 5 mL of Mueller Hinton broth and incubated overnight at 37° C. with shaking. The overnight culture was diluted (˜1:50) into 5 mL fresh broth and incubated at 37° C. to log phase (˜3 hours). Bacteria were pelleted for 5 minutes at 3000 rpm (1500×g). Bacterial pellets were resuspended in 5 mL PBS and diluted to 2×10^6 cells/mL in the Mueller Hinton broth (wherein 1 OD570 unit equals 1.25×10^9 CFU/mL). The BPI functional domain peptides to be tested were diluted to 200 μg/mL in broth and serially diluted 2-fold in 96 well culture plates (100 μL volume). All items were at 2-fold final concentration and experiments were conducted in triplicate. Bacteria were added at 100 μL/well and the plates were incubated on a shaker at 37° C. for a 20 hour period. The plates were then read on an ELISA plate multiple reader at 590 nm. One of the triplicate wells from each peptide concentration was selected for colony forming unit (CFU) determination. A 30 μL aliquot was added to 270 μL of PBS and further ten-fold serial dilutions were performed. Then a 50 μL aliquot was plated on tryptic soy agar and incubated overnight. Colonies were counted and final bacterial concentrations determined. The results of these assays are depicted in FIGS. 9e (for E. coli J5) and 9f (for E. coli 0111:B4).

ATIII/heparin complexes = assay: Thrombin inactivation by ATIII/heparin complexes (Chromostrate anti-thrombin assay); type: biochemical; details: 1.0 to 100 μg/mL
Procedure: BPI functional domain peptides BPI.2, BPI.3, BPI.4, BPI.5, BPI.6, and BPI.8, along with rBPI23 as a positive control, were assayed for their effect on thrombin inactivation by ATIII/heparin complexes according to the method of Example 3 in copending and co-assigned U.S. patent application Ser. No. 08/093,202, filed Jul. 15, 1993, incorporated by reference. Specifically, a Chromostrate™ anti-thrombin assay kit (Organon Teknika Corp., Durham, N.C.) was used to examine the inhibition of purified thrombin by preformed ATIII/heparin complexes in plasma.
Briefly, the assay was performed in 96 well microtiter plates in triplicate with a final volume per well of 200 μL. Varying concentrations of the BPI functional domain peptides ranging from 1.0 μg/mL to 100 μg/mL were assayed to determine their effect on thrombin inhibition in the presence of pre-formed ATIII/heparin complexes. The order of addition of assay components was as follows: 1) a dilution series of rBPI23 or BPI functional domain peptides or thaumatin as a control protein, with final concentrations of 100, 50, 25, 10 and 1 μg/well, diluted in PBS in a final volume of 50 μL; 2) 50 μL plasma diluted 1:100 in a buffer supplied by the manufacturer, 3) 50 μl thrombin at 1 nKat/mL in a buffer supplied by the manufacturer, and 4) 50 μL chromogenic substrate at a concentration of 1 μmol/mL in water. The reaction was allowed to proceed for 10 minutes at 37° C. and stopped with the addition of 50 μL 0.1M citric acid. The colorimetric reaction was quantitated on a microplate reader as described in Example 3.

Substance	bactericidal activity (in words) (Pseudomonas aeruginosa)	activity against L-form bacteria (in words) [1]	bactericidal activity (in words) (E. coli O75)	bactericidal activity (in words) (E. coli O18:K1:H7)	IC50 TNF assay [2]	LPS binding while bound to HUVEC cells (in words) [3]	bactericidal activity (in words) [4]	bactericidal activity (in words) (E. coli J5 (rough))	heparin neutralization effect (in words) (ATIII/heparin complexes)
KSKVGWLIQLFHKK-NH2 (C-terminus assumed) [BPI.13]	showed bactericidal activity	active against these L-form bacteria	showed bactericidal activity	showed bactericidal activity	42 µg/mL	–	–	–	–
KSKVGWLIQLFHKKKSKVGWLIQLFHKK-NH2 (C-terminus assumed) [BPI.29]	–	–	–	–	5.0 µg/mL	retain the capacity to bind LPS while bound to HUVEC cells	–	–	–
KWKAAARFLKKWKAAARFLK [BPI.48]	–	active against these L-form bacteria	–	–	–	–	active against antibiotic resistant Klebsiella	–	–
KWKAQKRFLKKSKVGWLIQLFHKK-NH2 (C-terminus assumed) [BPI.30]	showed bactericidal activity	–	showed bactericidal activity	showed bactericidal activity	–	retain the capacity to bind LPS while bound to HUVEC cells	–	–	–
KWKAQKRFLKKWKAQKRFLK-NH2 (C-terminus assumed) [BPI.7]	–	–	–	–	Not Inhibitory	–	active against antibiotic resistant Klebsiella	significant bactericidal activity	significant heparin neutralization effects
NVGLKFSISNANIKISGKWKAQKRFLK [BPI.3]	–	–	–	–	–	–	–	significant anti-bacterial activity	most significant heparin neutralization effects
